Test results as given in article PMC5748754, “Elucidating the Skin Delivery of Aglycone and Glycoside Flavonoids: How the Structures Affect Cutaneous Absorption” (Nutrients, 2017).
≈ marks a conversion by molar mass, not a printed value. Where “and” joins values, the source holds several entries; their conditions need not be identical. Equal values may be shown once. Entries after “also recorded” stand apart in the source; their conditions may differ.

Columns and labels:
[1] = system: fMLF-activated human neutrophils (O2•– release); test: Superoxide anion (O2•–) inhibition in fMLF-activated human neutrophils; assay type: cell-based; details: flavonoids at 3 µM, fMLF/cytochalasin B-activated human neutrophils; for inhibition at 3 µM: Homo sapiens, Neutrophil
Source text: (§1) The protocol was approved by the Institutional Review Board at Chang Gung Memorial Hospital, and written informed consent was obtained from all volunteers (201600500B0C101). Whole blood was withdrawn from healthy volunteers between 20 and 30 years of age. Human neutrophils were isolated using a typical method of dextran sedimentation prior to centrifugation in a Ficoll-Hypaque gradient and hypotonic lysis of erythrocytes. The granulocyte layer was harvested and suspended in calcium-free HBSS at pH 7.4, which was maintained at 4 °C until use.
(§2) The reduction of ferricytochrome c was utilized for measuring the superoxide anion (O2^•–) release from the neutrophils. The human neutrophils (6 × 10^5 cells/mL) were incubated with 0.5 mg/mL ferricytochrome c and 1 mM CaCl2 at 37 °C, and were then treated with flavonoids (3 µM) in DMSO for 10 min. Neutrophils were stimulated by adding 0.1 µM fMLF with cytochalasin B (1 µg/mL). The reduction of ferricytochrome c was monitored by the absorbance at 550 nm using a U3010 ultraviolet/visible spectrophotometer (Hitachi, Tokyo, Japan). The human neutrophils were equilibrated with an elastase substrate (MeO-Suc-Ala-Ala-Pro-Val-p-nitroanilide, 100 µM) at 37 °C for 2 min. Flavonoids at a concentration of 3 µM were added into the neutrophil suspension for 10 min. The cells were activated by fMLF and cytochalasin B for a further 10 min. Elastase release was detected by measuring the change of absorbance at 405 nm.

[2] = system: fMLF-activated human neutrophils (elastase release); test: Elastase release inhibition in fMLF-activated human neutrophils; assay type: cell-based; details: flavonoids at 3 µM, fMLF/cytochalasin B-activated human neutrophils; for inhibition at 3 µM: Neutrophil
Source text: as §1, §2

[3] = Saturated solubility in 20% PEG400/pH 7.4 buffer; assay type: physicochemical; details: for solubility at 2 h: aqueous with cosolvent or surfactant or cyclodextrin, thermodynamic from solid, 20% PEG400/pH 7.4 buffer, 37 °C
Description: The suspension was then centrifuged at 10,000× g for 10 min. The supernatant was filtered across the polyvinylidene fluoride membrane with a pore size of 0.45 µm. The resulting supernatant was analyzed by HPLC to record the solubility (mM).

[4] = In vitro Franz cell skin absorption, nude mouse skin; assay type: in vitro ADME; details: for S value (skin deposition/flux) / flux / selectivity ratio at 24 h, 6 mM: dose 6 mM; for S value (skin deposition/flux) / flux / S value (CSD/PC): the sentence does not separate nude mouse and pig skin; for selectivity ratio at 24 h, 6 mM / skin deposition: nude mouse skin; for selectivity ratio at 24 h, 6 mM: read-out: S value (dermal/transdermal selectivity index, skin deposition/flux); for skin deposition: equivalent dose 6 mM, 24 h
Description: (§3) The cutaneous absorption of flavonoids was assessed using a Franz diffusion cell system. The excised animal skin or cellulose membrane was mounted between the donor and receptor compartments with the SC facing up toward the donor. The receptor was filled with 30% ethanol/pH 7.4 buffer and placed on a magnetic stirring plate. The effective permeation area of the cell was 0.785 cm^2. The stirring rate and temperature of the receptor were 600 rpm and 37 °C, respectively. Saturated solution or a 6 mM flavonoid suspension was prepared in 20% PEG400/pH 7.4 buffer to be loaded into the donor compartment. A 300-µL aliquot in the receptor was collected at determined durations, followed by an immediate replacement with fresh receptor medium. The amount of flavonoid in the receptor was determined by HPLC. The skin was removed from the cell after a 24-h application. After being washed with water, the skin sample was weighed and positioned in a vial with 1 mL methanol. MagNA Lyser (Roche) was used to homogenize the skin. The homogenate was centrifuged at 10,000× g for 10 min. The supernatant was analyzed by HPLC to quantify the flavonoid deposition in the skin reservoir.
In the cutaneous absorption experiment, flavonoid deposition in the skin was estimated as the molar amount per mg of skin (nM/mg). In the case of the skin deposition from the saturated solution, the calibrated skin deposition (CSD) was measured as flavonoid deposition divided by the applied dose (saturated solubility). The flux (nM/cm^2/h) was estimated by the slope of the penetrated amount–time curve. The permeability coefficient (PC) was calculated from the flux divided by the saturated solubility of the flavonoids. The dermal/transdermal selectivity index (S value) was calculated using an equation of skin deposition/flux (for equivalent dose application) or CSD/PC (for saturated dose application).

[5] = Capacity factor (log K') by HPLC; assay type: physicochemical; details: HPLC C18, methanol/pH 2 phosphate buffer 1:1
Description: The HPLC setup for the calculation of log K’ was an HPLC system (7-series, Hitachi, Tokyo, Japan) with a LiChrospher® C18 column (200 × 4.6 mm, Merck, Darmstadt, Germany). The mobile phase consisted of a mixture of methanol and pH 2 phosphate buffer solution (1:1). The flow rate and wavelength for determination were 1 mL/min (L-7110 pump) and 256 nm (L-7455 diode array detector), respectively. The retention times of flavonoids were detected, and the log K’ was computed as log [(tr − t0)/t0], where tr and t0 were the retention time of the flavonoid and the nonretained solvent peak, respectively.

[6] = Partition coefficient (log P), n-octanol/water; assay type: physicochemical; details: 37 °C
Description: Flavonoids in methanol (0.5 mg/mL) were pipetted into a tube at a volume of 1 mL. Methanol was then evaporated under vacuum. In the amount of 1 mL of each, n-Octanol and water were incorporated into the tube. After being shaken for 24 h at 37 °C, the tube was centrifugated at 10,000× g for 10 min. The flavonoid content in both phases was analyzed by HPLC. The log P was calculated as log (flavonoid content in n-octanol/flavonoid content in water).

[7] = Franz cell skin deposition in SC-disrupted nude mouse skin; assay type: in vitro ADME; details: 6 mM; for Skin deposition, fold versus intact skin (SC-stripping) / skin deposition after the SC's removal: SC-stripped nude mouse skin
Description: The full-thickness dorsal skin of the nude mouse was excised after sacrifice. The SC-stripped skin was obtained by stripping the skin surface 20 times with adhesive tape (Scotch®, 3M, Maplewood, MN, USA). The delipidized skin was achieved by incubating the skin surface onto a chloroform/methanol solution (2:1) for 2 h. To prepare the desebumed skin, the SC side of the skin was washed with cold hexane (4 °C) five times, based on the procedure of the previous study. The skin’s surface was then treated with a 40% ethanol/water solution for 2 h, a process that successfully denatured the skin’s proteins.
as §3

[8] = In vitro Franz cell skin absorption, pig skin; assay type: in vitro ADME; details: read-out: S value (dermal/transdermal selectivity index, skin deposition/flux)
Description: as §3, with “After being washed with water, the skin sample was weighed and positioned in a vial with 1 mL methanol. MagNA Lyser (Roche) was used to homogenize the skin. The homogenate was centrifuged at 10,000× g for 10 min.” left out
In the cutaneous absorption experiment, flavonoid deposition in the skin was estimated as the molar amount per mg of skin (nM/mg). In the case of the skin deposition from the saturated solution, the calibrated skin deposition (CSD) was measured as flavonoid deposition divided by the applied dose (saturated solubility). […] The permeability coefficient (PC) was calculated from the flux divided by the saturated solubility of the flavonoids. […]

[9] = In vivo cutaneous tolerance (TEWL, histology) on nude mouse back; details: 6 mM topically daily for 7 days; for histology: SC layers: H&E, versus vehicle control; for ΔTEWL (treated skin minus aqueous vehicle control): nude mouse back
Description: The 20% PEG400/pH 7.4 buffer loaded with flavonoids at 6 mM was topically applied daily (0.6 mL) on the nude mouse back for 7 days. The flavonoid-containing vehicle was replaced with a new one each day. After removal of the vehicle, the treated skin region was evaluated by Tewameter TM300 (Courage and Khazaka, Köln, Germany) to determine the transepidermal water loss (TEWL). Stained by hematoxylin and eosin (H&E), the treated skin was excised for histological examination after a 7-day flavonoid application.

[10] = saturated solubility dose, skin type not separated

Compound: O=c1c(O)c(-c2cc(O)c(O)c(O)c2)oc2cc(O)cc(O)c12 [Myricetin]
- inhibition at 3 µM [1]: 42.1 ± 6.22%
- inhibition at 3 µM [2]: 16.8 ± 4.76%
- solubility at 2 h [3]: 530 ± 10 µM (≈ 169 µg/mL)
- S value (skin deposition/flux) [4]: ∞
- flux [4]: near zero
- permeability coefficient (PC) [4, 10]: neglected
- S value (CSD/PC) ([4]; saturated solubility dose): infinity
- log K’ [5]: 0.34
- logP at 24 h [6]: 3.18 ± 0.07
- Skin deposition, fold versus intact skin (SC-stripping) [7]: > 30 x
- skin deposition after the SC's removal [7]: 0.4 nM/mg

Compound: C[C@@H]1O[C@@H](OC[C@H]2O[C@@H](Oc3c(-c4ccc(O)c(O)c4)oc4cc(O)cc(O)c4c3=O)[C@H](O)[C@@H](O)[C@@H]2O)[C@H](O)[C@H](O)[C@H]1O [Rutin]
- inhibition at 3 µM [1]: 33.9 ± 8.67%
- selectivity ratio at 24 h, 6 mM [8]: 0.4
- inhibition at 3 µM [2]: 13.2 ± 3.39%
- solubility at 2 h [3]: 1840 ± 40 µM (≈ 1120 µg/mL)
- selectivity ratio at 24 h, 6 mM [4]: 1.3
- log K’ [5]: 0.24

Compound: Naringin
- O2^•– Inhibition [1]: 21.51 ± 2.53%
- Elastase Inhibition [2]: 13.89 ± 9.67%

Compound: C[C@@H]1O[C@@H](O[C@H]2[C@H](Oc3cc(O)c4c(c3)O[C@H](c3ccc(O)cc3)CC4=O)O[C@H](CO)[C@@H](O)[C@@H]2O)[C@H](O)[C@H](O)[C@H]1O [Naringin]
- solubility at 2 h [3]: > 20000 µM
- histology: SC layers [9]: SC layers could be recovered

Compound: Quercetin
- O2^•– Inhibition [1]: 26.44 ± 8.07%
- Elastase Inhibition ([2]; 3 µM): 29% and 28.67 ± 8.51%

Compound: O=c1c(O)c(-c2ccc(O)cc2)oc2cc(O)cc(O)c12 [Kaempferol]
- selectivity ratio at 24 h, 6 mM [8]: 1.5
- solubility at 2 h [3]: 190 ± 4.7 µM (≈ 54.4 µg/mL)
- histology: SC layers [9]: SC layers could be recovered
- ΔTEWL (treated skin minus aqueous vehicle control) [9]: reduced TEWL as compared to the vehicle control; also recorded: alleviated ΔTEWL
- selectivity ratio at 24 h, 6 mM [4]: 2.7
- skin deposition [4]: 0.11 nM/mg
- permeability coefficient (PC) [4, 10]: neglected
- S value (CSD/PC) ([4]; saturated solubility dose): infinity

Compound: O=C1C[C@@H](c2ccc(O)cc2)Oc2cc(O)cc(O)c21 [Naringenin]
- fold more soluble than baicalein ([3]; PEG400/pH 7.4 buffer solution): 470 fold
- solubility at 2 h [3]: 3620 ± 280 µM (≈ 986 µg/mL)
- histology: SC layers [9]: SC layers could be recovered
- ΔTEWL (treated skin minus aqueous vehicle control) [9]: reduced TEWL as compared to the vehicle control
- ΔTEWL (treated skin minus aqueous vehicle control) ([9]; listed as naringenin): alleviated ΔTEWL
- skin deposition [4]: 0.37 nM/mg

Compound: O=c1cc(-c2ccccc2)oc2cc(O)c(O)c(O)c12 [Baicalein]
- inhibition at 3 µM [1]: 77%
- O2^•– Inhibition ([1]; 3 µM): 77.48 ± 5.27%
- inhibition at 3 µM [2]: 12.2 ± 2.15%
- solubility at 2 h [3]: 7.7 ± 1.9 µM (≈ 2.08 µg/mL)
- calibrated skin deposition (CSD) [4, 10]: below the quantification limit
- S value (CSD/PC) ([4]; saturated solubility dose): 0
- log K’ [5]: 0.73
- logP at 24 h [6]: 3.59 ± 0.08
- skin deposition after the SC's removal [7]: 0.2 nM/mg

Compound: Kaempferol
- O2^•– Inhibition [1]: 26.49 ± 8.41%
- Elastase Inhibition [2]: 18.11 ± 9.01%

Compound: O=c1c(O)c(-c2ccc(O)c(O)c2)oc2cc(O)cc(O)c12 [Quercetin]
- solubility at 2 h [3]: 380 ± 2.5 µM (≈ 115 µg/mL)
- S value (skin deposition/flux) [4]: ∞
- flux [4]: near zero
- permeability coefficient (PC) [4, 10]: neglected
- S value (CSD/PC) ([4]; saturated solubility dose): infinity
- Skin deposition, fold versus intact skin (SC-stripping) [7]: > 30 x
- skin deposition after the SC's removal [7]: 1.2 nM/mg
- Skin deposition, fold versus intact skin (Protein removal) ([7]; deproteinized nude mouse skin): failed to change

Compound: O=C(O)[C@H]1O[C@@H](Oc2cc3oc(-c4ccccc4)cc(=O)c3c(O)c2O)[C@H](O)[C@@H](O)[C@@H]1O [Baicalin]
- inhibition at 3 µM [1]: 77%
- O2^•– Inhibition ([1]; 3 µM): 75.73 ± 6.21%
- O2^•– Inhibition ([1]; listed as baicalin, 3 µM): 76%
- inhibition at 3 µM [2]: 0%
- Elastase Inhibition [2]: did not change
- solubility at 2 h [3]: 5320 ± 150 µM (≈ 2370 µg/mL)
- log K’ [5]: 0.42
- logP at 24 h [6]: 0.89 ± 0.02

Compound: Naringenin
- O2^•– Inhibition ([1]; 3 µM): 19.72 ± 8.23%
- O2^•– Inhibition ([1]; listed as naringenin, 3 µM): 20%
- Elastase Inhibition [2]: 17.97 ± 6.62%
